Earlier results, collected in patent EP3957364A1, “A BINDING MOLECULE SPECIFICALLY BINDING TO HUMAN CD4 FOR USE IN THE TREATMENT OF PULMONARY DISEASES” (Fraunhofer-Gesellschaft zur Förderung der angewandten …, priority 2020, dated 2022).

Biological target: CD4 (Homo sapiens, UniProt P01730)
Details: reported, no source named

TbYICbEbVEDQKAcEE
inhibition of CD4 binding of gp120 and MAX.16H5 IgG1 (or 16H5.chimlgG4): inhibit CD4 binding of both gp120 and MAX.16H5 IgG1
